Laboratory results published in patent US11207310B2 (PRILENIA NEUROTHERAPEUTICS LTD., priority 2016, dated 2021).
Read-outs that look alike come from different tables or passages of the source.

Legend:
patients with HD [1] = test system: patients with HD
Excerpt: The mPPT quantifies the patient's performance in physical tasks (Brown 2000). It is a standardized 9-item test (standing static balance, chair rise, lift a book and put it on a shelf, put on and remove a jacket, pick up a penny from floor, turn 360 degrees, 50 feet walk, climb one flight of stairs, climb stairs test (flights up and down)), that measures the patient's performance on functional tasks. Both the speed and accuracy at which the patients complete the items are taken into account during scoring. The maximum score of the test is 36, with higher scores indicating better performance. The Multiple Sclerosis Walking Scale (MSWS-12) was adapted to become a generic measure of walking and mobility and renamed the Walk-12.
The secondary efficacy variable and endpoint, the Modified Physical Performance Test (mPPT), quantifies the patient's performance in physical tasks (Brown 2000). It is a standardized 9-item test that measures the patient's performance on functional tasks. Assistive devices are permitted for the tasks that require a standing position (items 6 to 9). Both the speed and accuracy at which the patients complete the items were taken into account during scoring. The maximum score of the test is 36, with higher scores indicating better performance.

patients with HD [2] = details: for PBA Irritability, Severity×Frequency, change from baseline, Wk 52 Δ to placebo: BL TFC≥7
Description: The PBA-s is a brief semi-structured interview covering the most common behavioral and psychiatric manifestations of HD. […] Severity and frequency scores are multiplied to produce an overall ‘PBA score’ for each symptom.
The PBA-s is a brief semi-structured interview covering the most common behavioral and psychiatric manifestations of HD.
The total PBA score is calculated by the sum of all PBA-s scores across symptoms/domains.

[3] = 112.5 mg bid, HD1 and HD2 patients, 52 weeks
[4] = 112.5 mg bid, full analysis set, 26 weeks
[5] = 112.5 mg bid, full analysis set, 52 weeks
[6] = 112.5 mg bid, late stage HD patients with BL TFC<7, 52 weeks

CCCN1CCC(c2cccc(S(C)(=O)=O)c2)CC1 [pridopidine, 4-[3-(methylsulfonyl)phenyl]-1-propyl-piperidine]
Δ to placebo: mPPT Climb One Flight of Stairs scores, change from baseline (patients with HD [1]; 90 mg bid, late stage HD patients with BL TFC<7, 52 weeks): −0.26
Change from baseline in mPPT Climb One Flight of Stairs scores, Δ to placebo (patients with HD [1]; [3]): 0.23
Change from baseline in mPPT Climb Stairs (Flights Up and Down) scores, Δ to placebo (patients with HD [1]; [3]): 0.07
Change from baseline in mPPT Climb One Flight of Stairs scores, Δ to placebo (patients with HD [1]; 112.5 mg bid, HD1 patients, 52 weeks): 0.18
Change from baseline in mPPT Climb One Flight of Stairs scores, Δ to placebo (patients with HD [1]; 112.5 mg bid, HD2 patients, 52 weeks): 0.23
Change from baseline in mPPT Climb Stairs (Flights Up and Down) scores, Δ to placebo (patients with HD [1]; [4]): −0.08
Δ to placebo: mPPT 50 Feet Walk scores, change from baseline (patients with HD [1]; [4]): −0.17
Δ to placebo: mPPT Chair Rise scores (patients with HD [1]; [4]): 0.12
Δ to placebo: mPPT Climb One Flight of Stairs scores, change from baseline (patients with HD [1]; [4]): 0.16
Δ to placebo: mPPT Lift a Book and Put it on the Shelf scores, change from baseline (patients with HD [1]; [4]): 0.14
Δ to placebo: mPPT Pick up a Penny from the Floor scores, change from baseline (patients with HD [1]; [4]): 0.07
Δ to placebo: mPPT Put on and Remove a Jacket scores, change from baseline (patients with HD [1]; [4]): −0.03
Δ to placebo: mPPT Turn 360 Degrees scores, change from baseline (patients with HD [1]; [4]): 0.2
Δ to placebo: mPPT standing static balance scores (patients with HD [1]; [4]): 0.05
Change from baseline in mPPT Climb Stairs (Flights Up and Down) scores, Δ to placebo (patients with HD [1]; [5]): 0.1
Δ to placebo: mPPT 50 Feet Walk scores, change from baseline (patients with HD [1]; [5]): −0.15
Δ to placebo: mPPT Chair Rise scores (patients with HD [1]; [5]): −0.12
Δ to placebo: mPPT Climb One Flight of Stairs scores, change from baseline (patients with HD [1]; [5]): 0.11
Δ to placebo: mPPT Lift a Book and Put it on the Shelf scores, change from baseline (patients with HD [1]; [5]): 0.12
Δ to placebo: mPPT Pick up a Penny from the Floor scores, change from baseline (patients with HD [1]; [5]): 0.07
Δ to placebo: mPPT Put on and Remove a Jacket scores, change from baseline (patients with HD [1]; [5]): −0.18
Δ to placebo: mPPT Turn 360 Degrees scores, change from baseline (patients with HD [1]; [5]): −0.08
Δ to placebo: mPPT standing static balance scores (patients with HD [1]; [5]): −0.12
Change from baseline in mPPT Climb One Flight of Stairs scores, Δ to placebo (patients with HD [1]; 112.5 mg bid, late stage HD patients with BL TFC 0-6, 52 weeks): −0.15
Change from baseline in mPPT Climb Stairs (Flights Up and Down) scores, Δ to placebo (patients with HD [1]; [6]): 0.31
Δ to placebo: mPPT Climb One Flight of Stairs scores, change from baseline (patients with HD [1]; [6]): −0.15
Change from baseline in PBA Depressed Mood, Severity×Frequency, Δ to placebo (patients with HD [2]; 45 mg bid, Week 26, ALL): −0.29
PBA Disoriented Behavior, Severity×Frequency, change from baseline, Δ to placebo (patients with HD [2]; 45 mg bid, Week 26, ALL, p value 0.2864): −0.2
PBA Obsessive-Compulsive, Severity×Frequency, change from baseline, Δ to placebo (patients with HD [2]; 45 mg bid, Week 26, ALL, p value 0.8081): 0.1
Change from baseline in PBA Depressed Mood, Severity×Frequency, Δ to placebo (patients with HD [2]; 45 mg bid, Week 26, Stage 1 BL TFC 11-13): −0.63
PBA Obsessive-Compulsive, Severity×Frequency, change from baseline, Δ to placebo (patients with HD [2]; 45 mg bid, Week 26, Stage 1 BL TFC 11-13, p value 0.0035): −2.11
PBA Disoriented Behavior, Severity×Frequency, change from baseline, Δ to placebo (patients with HD [2]; 45 mg bid, Week 26, Stage 1 BL TFC 11-13, p value 0.0381): −0.19
Change from baseline PBA Irritability, Severity×Frequency, Δ to placebo (patients with HD [2]; 45 mg bid, Week 52, ALL): −1.03
PBA Obsessive-Compulsive, Severity×Frequency, change from baseline, Δ to placebo (patients with HD [2]; 45 mg bid, Week 52, ALL, p value 0.5733): −0.24
PBA Irritability, Severity×Frequency, change from baseline, Δ to placebo (patients with HD [2]; 45 mg bid, Week 52, BL TFC<7, p value 0.0165): −2.42
PBA Irritability, Severity×Frequency, change from baseline, Wk 52 Δ to placebo (patients with HD [2]; 45 mg bid, Week 52, p value 0.1789): −0.59
PBA Obsessive-Compulsive, Severity×Frequency, change from baseline, Δ to placebo (patients with HD [2]; 45 mg bid, Week 52, Stage 1 BL TFC 11-13, p value 0.007): −2.73
PBA Irritability, Severity×Frequency, change from baseline, Δ to placebo (patients with HD [2]; 45 mg bid, Week 52, Stage 3-5 BL TFC 0-6, p value 0.0165): −2.42
Change from baseline in PBA Depressed Mood, Severity×Frequency, Δ to placebo (patients with HD [2]; 67.5 mg bid, Week 26, ALL): −0.65
PBA Disoriented Behavior, Severity×Frequency, change from baseline, Δ to placebo (patients with HD [2]; 67.5 mg bid, Week 26, ALL, p value 0.1357): −0.28
PBA Obsessive-Compulsive, Severity×Frequency, change from baseline, Δ to placebo (patients with HD [2]; 67.5 mg bid, Week 26, ALL, p value 0.2512): −0.45
Change from baseline in PBA Depressed Mood, Severity×Frequency, Δ to placebo (patients with HD [2]; 67.5 mg bid, Week 26, Stage 1 BL TFC 11-13): −2.01
PBA Obsessive-Compulsive, Severity×Frequency, change from baseline, Δ to placebo (patients with HD [2]; 67.5 mg bid, Week 26, Stage 1 BL TFC 11-13, p value 0.0035): −2.03
PBA Disoriented Behavior, Severity×Frequency, change from baseline, Δ to placebo (patients with HD [2]; 67.5 mg bid, Week 26, Stage 1 BL TFC 11-13, p value 0.0615): −0.16
Change from baseline PBA Irritability, Severity×Frequency, Δ to placebo (patients with HD [2]; 67.5 mg bid, Week 52, ALL): −0.63
PBA Obsessive-Compulsive, Severity×Frequency, change from baseline, Δ to placebo (patients with HD [2]; 67.5 mg bid, Week 52, ALL, p value 0.5068): −0.28
PBA Irritability, Severity×Frequency, change from baseline, Δ to placebo (patients with HD [2]; 67.5 mg bid, Week 52, BL TFC<7, p value 0.0429): −1.78
PBA Irritability, Severity×Frequency, change from baseline, Wk 52 Δ to placebo (patients with HD [2]; 67.5 mg bid, Week 52, p value 0.466): −0.33
PBA Obsessive-Compulsive, Severity×Frequency, change from baseline, Δ to placebo (patients with HD [2]; 67.5 mg bid, Week 52, Stage 1 BL TFC 11-13, p value 0.0011): −3.24
PBA Irritability, Severity×Frequency, change from baseline, Δ to placebo (patients with HD [2]; 67.5 mg bid, Week 52, Stage 3-5 BL TFC 0-6, p value 0.0429): −1.78
Change from baseline in PBA Depressed Mood, Severity×Frequency, Δ to placebo (patients with HD [2]; 90 mg bid, Week 26, ALL): −0.34
PBA Disoriented Behavior, Severity×Frequency, change from baseline, Δ to placebo (patients with HD [2]; 90 mg bid, Week 26, ALL, p value 0.607): −0.09
PBA Obsessive-Compulsive, Severity×Frequency, change from baseline, Δ to placebo (patients with HD [2]; 90 mg bid, Week 26, ALL, p value 0.7541): −0.12
Change from baseline in PBA Depressed Mood, Severity×Frequency, Δ to placebo (patients with HD [2]; 90 mg bid, Week 26, Stage 1 BL TFC 11-13): −0.84
PBA Obsessive-Compulsive, Severity×Frequency, change from baseline, Δ to placebo (patients with HD [2]; 90 mg bid, Week 26, Stage 1 BL TFC 11-13, p value 0.0251): −1.71
PBA Disoriented Behavior, Severity×Frequency, change from baseline, Δ to placebo (patients with HD [2]; 90 mg bid, Week 26, Stage 1 BL TFC 11-13, p value 0.093): −0.16
Change from baseline PBA Irritability, Severity×Frequency, Δ to placebo (patients with HD [2]; 90 mg bid, Week 52, ALL): −1.01
PBA Obsessive-Compulsive, Severity×Frequency, change from baseline, Δ to placebo (patients with HD [2]; 90 mg bid, Week 52, ALL, p value 0.7508): −0.13
PBA Irritability, Severity×Frequency, change from baseline, Δ to placebo (patients with HD [2]; 90 mg bid, Week 52, BL TFC<7, p value 0.0422): −1.79
PBA Irritability, Severity×Frequency, change from baseline, Wk 52 Δ to placebo (patients with HD [2]; 90 mg bid, Week 52, p value 0.0311): −0.95
PBA Obsessive-Compulsive, Severity×Frequency, change from baseline, Δ to placebo (patients with HD [2]; 90 mg bid, Week 52, Stage 1 BL TFC 11-13, p value 0.021): −2.47
PBA Irritability, Severity×Frequency, change from baseline, Δ to placebo (patients with HD [2]; 90 mg bid, Week 52, Stage 3-5 BL TFC 0-6, p value 0.0422): −1.79
Change from baseline in PBA Depressed Mood, Severity×Frequency, Δ to placebo (patients with HD [2]; 112.5 mg bid, Week 26, ALL): −0.52
PBA Obsessive-Compulsive, Severity×Frequency, change from baseline, Δ to placebo (patients with HD [2]; 112.5 mg bid, Week 26, ALL, p value 0.1061): −0.63
PBA Disoriented Behavior, Severity×Frequency, change from baseline, Δ to placebo (patients with HD [2]; 112.5 mg bid, Week 26, ALL, p value 0.6771): −0.08
Change from baseline in PBA Depressed Mood, Severity×Frequency, Δ to placebo (patients with HD [2]; 112.5 mg bid, Week 26, Stage 1 BL TFC 11-13): −1.43
PBA Obsessive-Compulsive, Severity×Frequency, change from baseline, Δ to placebo (patients with HD [2]; 112.5 mg bid, Week 26, Stage 1 BL TFC 11-13, p value 0.0114): −1.73
PBA Disoriented Behavior, Severity×Frequency, change from baseline, Δ to placebo (patients with HD [2]; 112.5 mg bid, Week 26, Stage 1 BL TFC 11-13, p value 0.0357): −0.18
Change from baseline PBA Irritability, Severity×Frequency, Δ to placebo (patients with HD [2]; 112.5 mg bid, Week 52, ALL): −0.84
PBA Obsessive-Compulsive, Severity×Frequency, change from baseline, Δ to placebo (patients with HD [2]; 112.5 mg bid, Week 52, ALL, p value 0.7789): −0.12
PBA Irritability, Severity×Frequency, change from baseline, Δ to placebo (patients with HD [2]; 112.5 mg bid, Week 52, BL TFC<7, p value 0.0542): −1.71
PBA Irritability, Severity×Frequency, change from baseline, Wk 52 Δ to placebo (patients with HD [2]; 112.5 mg bid, Week 52, p value 0.1927): −0.6
PBA Obsessive-Compulsive, Severity×Frequency, change from baseline, Δ to placebo (patients with HD [2]; 112.5 mg bid, Week 52, Stage 1 BL TFC 11-13, p value 0.005): −2.73
PBA Irritability, Severity×Frequency, change from baseline, Δ to placebo (patients with HD [2]; 112.5 mg bid, Week 52, Stage 3-5 BL TFC 0-6, p value 0.0542): −1.71
